Source: patent US20220089612A1, “HETEROCYCLIC COMPOUNDS AS PRMT5 INHIBITORS” (ANGEX PHARMACEUTICAL, INC., priority 2017, published 2022)

These compounds were tested against PRMT5:MEP50 (Homo sapiens, UniProt O14744) (assay: PRMT5:MEP50 Flashplate Assay). Details: PRMT5:MEP50 inhibitory activity; 3H-SAM, 2 h at room temperature, top concentration 10 μM.
Assay type: biochemical
Procedure: PRMT5:MEP50 Flashplate Assay:
Ten-point curves of inhibitor compounds were made using serial threefold dilutions in DMSO (the final top concentration of compound was 10 μM, 1% DMSO). Reaction mixture consisting of 50 mM Tris-HCl (pH 8.5), 0.002% Tween 20, 0.005% BSA (Bovine Serum Albumin), 1 mM TCEP, and 1% DMSO. Substrates are freshly prepared in reaction buffer. PRMT5:MEP50 was then added into substrate solution and mixed gently. Inhibitor compound was then added and incubated for 30 min at room temperature. ^3H-SAM was added to initiate the reaction. Reactions were incubated for 2 h at room temperature and quenched with 0.5 mM SAM (S-adenosyl-L-Methionine) in assay buffer. An aliquot of the reaction mix was transferred to a streptavidin-coated 384-well FlashPlate (PerkinElmer). After an incubation time of 1 h, the plate was washed and then read on a TopCount (PerkinElmer) to measure the amount of tritium incorporated into the peptide substrate. IC50 was calculated using conventional curve-fitting method.

Sequence of PRMT5:MEP50 (O14744 whole entry, species assumed): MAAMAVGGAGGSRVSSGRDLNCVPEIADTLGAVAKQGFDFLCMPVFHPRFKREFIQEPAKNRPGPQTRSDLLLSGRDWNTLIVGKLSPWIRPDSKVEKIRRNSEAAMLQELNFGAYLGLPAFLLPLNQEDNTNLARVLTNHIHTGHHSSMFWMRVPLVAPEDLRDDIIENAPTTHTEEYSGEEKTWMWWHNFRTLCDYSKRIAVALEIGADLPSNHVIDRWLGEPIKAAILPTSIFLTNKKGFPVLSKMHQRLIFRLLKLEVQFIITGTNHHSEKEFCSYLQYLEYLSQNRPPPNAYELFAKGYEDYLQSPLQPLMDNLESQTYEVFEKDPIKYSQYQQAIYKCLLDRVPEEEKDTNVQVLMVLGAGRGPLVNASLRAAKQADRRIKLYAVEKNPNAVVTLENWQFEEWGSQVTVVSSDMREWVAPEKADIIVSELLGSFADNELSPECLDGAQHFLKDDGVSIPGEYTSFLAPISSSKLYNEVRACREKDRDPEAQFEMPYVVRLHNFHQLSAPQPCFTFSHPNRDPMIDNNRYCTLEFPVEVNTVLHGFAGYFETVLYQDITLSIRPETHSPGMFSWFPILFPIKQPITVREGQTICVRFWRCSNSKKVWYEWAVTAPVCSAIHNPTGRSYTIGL
Sequence of PRMT5:MEP50 (Q9BQA1 whole entry partner, species assumed): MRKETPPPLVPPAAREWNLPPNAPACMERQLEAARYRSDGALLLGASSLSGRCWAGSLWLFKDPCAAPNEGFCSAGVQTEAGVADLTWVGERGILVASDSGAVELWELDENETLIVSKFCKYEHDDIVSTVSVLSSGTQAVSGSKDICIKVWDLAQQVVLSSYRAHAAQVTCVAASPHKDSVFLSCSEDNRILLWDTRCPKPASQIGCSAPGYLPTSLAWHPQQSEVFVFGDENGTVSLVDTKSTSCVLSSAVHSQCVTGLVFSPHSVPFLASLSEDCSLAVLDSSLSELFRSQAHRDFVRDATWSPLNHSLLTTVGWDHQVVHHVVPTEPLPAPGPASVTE

SMILES	IC50 [nM]
C=CC[C@@H]1Cc2cc3ccc(CC[C@H]4C[C@@H](n5ccc6c(N)ncnc65)[C@H](O)[C@@H]4O)cc3nc2N1 [Compound 1-27, (1S,2R,3S,5R)-3-(2-((R)-2-allyl-2,3-dihydro-1H-pyrrolo[2,3-b]quinolin-7-yl)ethyl)-5-(4-amino-7H-pyrrolo[2,3-d]pyrimidin-7-yl)cyclopentane-1,2-diol]	< 1
CC(C)(C)[C@@H]1Cc2cc3ccc(CC[C@H]4C[C@@H](n5ccc6c(N)ncnc65)[C@H](O)[C@@H]4O)cc3nc2N1 [Compound 1-26, (1R,2S,3R,5S)-3-(4-amino-7H-pyrrolo[2,3-d]pyrimidin-7-yl)-5-(2-((S)-2-(tert-butyl)-2,3-dihydro-1H-pyrrolo[2,3-b]quinolin-7-yl)ethyl)cyclopentane-1,2-diol]	< 1
C[C@@H]1CCc2cc3ccc(CC[C@H]4C[C@@H](n5ccc6c(N)ncnc65)[C@H](O)[C@@H]4O)cc3nc2N1 [Compound 1-37, (1R,2S,3R,5S)-3-(4-amino-7H-pyrrolo[2,3-d]pyrimidin-7-yl)-5-(2-((R)-2-methyl-1,2,3,4-tetrahydrobenzo[b][1,8]naphthyridin-8-yl)ethyl)cyclopentane-1,2-diol]	< 1
C[C@H]1Cc2cc3ccc(CC[C@H]4C[C@@H](n5ccc6c(N)ncnc65)[C@H](O)[C@@H]4O)cc3nc2NO1 [Compound 1-15, (1R,2S,3R,5S)-3-(4-amino-7H-pyrrolo[2,3-d]pyrimidin-7-yl)-5-(2-((S)-3-methyl-3,4-dihydro-1H-[1,2]oxazino[3,4-b]quinolin-8-yl)ethyl)cyclopentane-1,2-diol]	1 to 100
Nc1ncnc2c1ccn2[C@@H]1C[C@H](CCc2ccc3cc4c(nc3c2)NOCCC4)[C@@H](O)[C@H]1O [Compound 1-17, (1R,2S,3R,5S)-3-(4-amino-7H-pyrrolo[2,3-d]pyrimidin-7-yl)-5-(2-(1,3,4,5-tetrahydro-[1,2]oxazepino[3,4-b]quinolin-9-yl)ethyl)cyclopentane-1,2-diol]	1 to 100
Nc1ncnc2c1ccn2[C@@H]1C[C@H](CCc2ccc3cc4c(nc3c2)N[C@@H](C2CC2)C4)[C@@H](O)[C@H]1O [Compound 1-23, (1R,2S,3R,5S)-3-(4-amino-7H-pyrrolo[2,3-d]pyrimidin-7-yl)-5-(2-((R)-2-cyclopropyl-2,3-dihydro-1H-pyrrolo[2,3-b]quinolin-7-yl)ethyl)cyclopentane-1,2-diol]	< 1
C[C@@H]1Cc2cc3ccc(CC[C@H]4C[C@@H](n5ccc6c(N)ncnc65)[C@H](O)[C@@H]4O)cc3nc2NO1 [Compound 1-16, (1R,2S,3R,5S)-3-(4-amino-7H-pyrrolo[2,3-d]pyrimidin-7-yl)-5-(2-((R)-3-methyl-3,4-dihydro-1H-[1,2]oxazino[3,4-b]quinolin-8-yl)ethyl)cyclopentane-1,2-diol]	< 1
Nc1ncnc2c1ccn2[C@@H]1C[C@H](CCc2ccc3cc4nn[nH]c4nc3c2)[C@@H](O)[C@H]1O [Compound 1-19, (1S,2R,3S,5R)-3-(2-(3H-[1,2,3]triazolo[4,5-b]quinolin-6-yl)ethyl)-5-(4-amino-7H-pyrrolo[2,3-d]pyrimidin-7-yl)cyclopentane-1,2-diol]	1 to 100
Cn1[nH]c2nc3cc(CC[C@H]4C[C@@H](n5ccc6c(N)ncnc65)[C@H](O)[C@@H]4O)ccc3cc2c1=O [Compound 1-34, 7-(2-((1S,2R,3S,4R)-4-(4-amino-7H-pyrrolo[2,3-d]pyrimidin-7-yl)-2,3-dihydroxycyclopentyl)ethyl)-2-methyl-1,2-dihydro-3H-pyrazolo[3,4-b]quinolin-3-one]	> 100
Nc1ncnc2c1ccn2[C@@H]1O[C@H](CCc2ccc3cc4cn[nH]c4nc3c2)[C@@H](O)[C@H]1O [Compound 3-12, (2R,3S,4R,5R)-2-(2-(1H-pyrazolo[3,4-b]quinolin-7-yl)ethyl)-5-(4-amino-7H-pyrrolo[2,3-d]pyrimidin-7-yl)tetrahydrofuran-3,4-diol]	1 to 100

Second part, the compound after the results:

IC50 [nM]	SMILES
< 1	Nc1ncnc2c1ccn2[C@@H]1C[C@H](CCc2ccc3cc4c(nc3c2)NOCC4)[C@@H](O)[C@H]1O [Compound 1-13, (1R,2S,3R,5S)-3-(4-amino-7H-pyrrolo[2,3-d]pyrimidin-7-yl)-5-(2-(3,4-dihydro-1H-[1,2]oxazino[3,4-b]quinolin-8-yl)ethyl)cyclopentane-1,2-diol]
> 100	Nc1ncnc2c1ccn2[C@@H]1C[C@H](CCc2ccc3cc4c(=O)n(-c5ccccc5)[nH]c4nc3c2)[C@@H](O)[C@H]1O [Compound 1-33, 7-(2-((1S,2R,3S,4R)-4-(4-amino-7H-pyrrolo[2,3-d]pyrimidin-7-yl)-2,3-dihydroxycyclopentyl)ethyl)-2-phenyl-1,2-dihydro-3H-pyrazolo[3,4-b]quinolin-3-one]
1 to 100	CC1(C)CNc2nc3cc(CC[C@H]4O[C@@H](n5ccc6c(N)ncnc65)[C@H](O)[C@@H]4O)ccc3cc21 [Compound 3-9, (2R,3R,4S,5R)-2-(4-amino-7H-pyrrolo[2,3-d]pyrimidin-7-yl)-5-(2-(3,3-dimethyl-2,3-dihydro-1H-pyrrolo[2,3-b]quinolin-7-yl)ethyl)tetrahydrofuran-3,4-diol]
1 to 100	Nc1ncnc2c1ccn2[C@@H]1C[C@H](CCc2ccc3cc4c(nc3c2)N[C@H](CC2CC2)C4)[C@@H](O)[C@H]1O [Compound 1-29, (1R,2S,3R,5S)-3-(4-amino-7H-pyrrolo[2,3-d]pyrimidin-7-yl)-5-(2-((R)-2-(cyclopropylmethyl)-2,3-dihydro-1H-pyrrolo[2,3-b]quinolin-7-yl)ethyl)cyclopentane-1,2-diol]
< 1	Nc1ncnc2c1ccn2[C@@H]1C[C@H](CCc2ccc3cc4c(nc3c2)N[C@H](C2CC2)CC4)[C@@H](O)[C@H]1O [Compound 1-38, (1R,2S,3R,5S)-3-(4-amino-7H-pyrrolo[2,3-d]pyrimidin-7-yl)-5-(2-((S)-2-cyclopropyl-1,2,3,4-tetrahydrobenzo[b][1,8]naphthyridin-8-yl)ethyl)cyclopentane-1,2-diol]
1 to 100	CC(C)[C@@H]1CCc2cc3ccc(CC[C@H]4C[C@@H](n5ccc6c(N)ncnc65)[C@H](O)[C@@H]4O)cc3nc2N1 [Compound 1-39, (1R,2S,3R,5S)-3-(4-amino-7H-pyrrolo[2,3-d]pyrimidin-7-yl)-5-(2-((S)-2-isopropyl-1,2,3,4-tetrahydrobenzo[b][1,8]naphthyridin-8-yl)ethyl)cyclopentane-1,2-diol]
< 1	Nc1ncnc2c1ccn2[C@@H]1C[C@H](CCc2ccc3cc4c(nc3c2)NCCCC4)[C@@H](O)[C@H]1O [Compound 1-41, (1R,2S,3R,5S)-3-(4-amino-7H-pyrrolo[2,3-d]pyrimidin-7-yl)-5-(2-(2,3,4,5-tetrahydro-1H-azepino[2,3-b]quinolin-9-yl)ethyl)cyclopentane-1,2-diol]
1 to 100	Nc1ncnc2c1ccn2[C@@H]1C[C@H](CCc2ccc3cc4c(nc3c2)N[C@H](c2ccccc2)C4)[C@@H](O)[C@H]1O [Compound 1-28, (1R,2S,3R,5S)-3-(4-amino-7H-pyrrolo[2,3-d]pyrimidin-7-yl)-5-(2-((S)-2-phenyl-2,3-dihydro-1H-pyrrolo[2,3-b]quinolin-7-yl)ethyl)cyclopentane-1,2-diol]
< 1	C[C@H]1CCc2cc3ccc(CC[C@H]4C[C@@H](n5ccc6c(N)ncnc65)[C@H](O)[C@@H]4O)cc3nc2N1 [Compound 1-36, (1R,2S,3R,5S)-3-(4-amino-7H-pyrrolo[2,3-d]pyrimidin-7-yl)-5-(2-((S)-2-methyl-1,2,3,4-tetrahydrobenzo[b][1,8]naphthyridin-8-yl)ethyl)cyclopentane-1,2-diol]
